Measurements published in patent US6838416B2, “Herbicidal 5-benzyloxymethyl-1,2-isoxazoline derivatives” (Korea Research Institute of Chemical Technology, priority 2000, dated 2005).

Key:
ORYSA (3-leaf stage) = assay: Assay for herbicidal activity, paddy pots: phytotoxicity to transplanted rice seedlings; assay type: in vivo, Oryza sativa L.
Source text: (§1) To evaluate herbicidal activity against the paddy weeds in the paddy rice (ORYSA: Oryza sativa L.), the herbicidal activity of the compounds of the invention was compared to that of the compound No.109 (compound A) disclosed in U.S. Pat. […] The paddy weeds tested were ECHOR (Echinochloa crus-galli var. oryzicola), SCPJU (Scirpus juncoides ROXB), MOOVA (Monochoria vaginalis […] (Cyperus serotinus ROTTB), and SAGPY (Sagittaria pygmaea MTQ). The vessels employed were plastic pots having an area of 140 cm^2 and filled with a sandy loam soil containing 1.2% organic matter (pH 6).

ORYSA (seed) = assay: Assay for herbicidal activity, paddy pots: phytotoxicity to seeded (pregerminated) rice; assay type: in vivo, Oryza sativa L.
Source text: as §1

ECHOR (seed) = assay: Assay for herbicidal activity, paddy pots: ECHOR; assay type: in vivo, Echinochloa crus-galli var. oryzicola; conditions: three weeks after application, 0 untreated control, 100 complete kill
Source text: as §1

SCPJU (seed) = assay: Assay for herbicidal activity, paddy pots: SCPJU; assay type: in vivo, Scirpus juncoides ROXB; conditions: three weeks after application, 0 untreated control, 100 complete kill
Source text: as §1

MOOVA (seed) = assay: Assay for herbicidal activity, paddy pots: MOOVA; assay type: in vivo, Monochoria vaginalis PRESL; conditions: three weeks after application, 0 untreated control, 100 complete kill
Source text: as §1

CYPSE (tuber) = assay: Assay for herbicidal activity, paddy pots: CYPSE; assay type: in vivo, Cyperus serotinus ROTTB; conditions: three weeks after application, 0 untreated control, 100 complete kill
Source text: as §1

SAGPY (tuber) = assay: Assay for herbicidal activity, paddy pots: SAGPY; assay type: in vivo, Sagittaria pygmaea MTQ; conditions: three weeks after application, 0 untreated control, 100 complete kill
Source text: as §1

ORYSA 2-leaf stage = assay: Assay for herbicidal activity on the 2-leaf stage weeds and rice plants: rice 2-leaf stage; assay type: in vivo, Oryza sativa L.; conditions: applied at 2-leaf stage, 0 untreated control, 100 complete kill
Description: (§2) The vessels employed were plastic pots having an area of 140 cm^2 and filled with a sandy loam soil containing 1.2% organic matter (pH 6). Pregerminated seed of rice (ORYSA: Oryza sativa L.) and seed of ECHOR (Echinochloa crus-galli var oryzicola) were seeded on the soil surface, respectively. The pots were then watered at the depth of 3 cm just after seeding.
(§3) Seven days after seeding, the pregerminated seeds of rice were seeded on the soil face whilst the early seeded rice in the same pots and barnyard grass (ECHOR) grew up to the 2-leaf stage. Two days after, a solution of the compound of Example 8 and Tween-20 as a non-ionic emulsifier in 50% acetone, was diluted with water to a concentration of 0.016, 0.063, 0.25, 1 and 4.0 kg/ha, respectively and applied evenly to the test pots.
(§4) Three weeks after starting from the beginning, the application of the herbicide, the herbicidal activity on paddy weeds and the phytotoxicity to the paddy rice plant were visually rated by a percentage grading wherein 0 indicates as an untreated control and 100 indicates complete kill. The results are shown in the following

ORYSA seed = assay: Assay for herbicidal activity on the 2-leaf stage weeds and rice plants: rice seed; assay type: in vivo, Oryza sativa L.; conditions: applied two days after seeding pregerminated seeds, 0 untreated control, 100 complete kill
Description: as §2, §3, §4

ECHOR 2-leaf stage = assay: Assay for herbicidal activity on the 2-leaf stage weeds and rice plants: ECHOR 2-leaf stage; assay type: in vivo, Echinochloa crus-galli var oryzicola; conditions: applied at 2-leaf stage, 0 untreated control, 100 complete kill
Description: as §2, §3, §4

[1] = 0.016 kg/ha, three weeks after application, 0 untreated control, 100 complete kill
[2] = 0.063 kg/ha, three weeks after application, 0 untreated control, 100 complete kill
[3] = 0.250 kg/ha, three weeks after application, 0 untreated control, 100 complete kill
[4] = 1.000 kg/ha, three weeks after application, 0 untreated control, 100 complete kill
[5] = 4.000 kg/ha, three weeks after application, 0 untreated control, 100 complete kill

SMILES | ECHOR (seed) herbicidal activity, visual percentage grading (ECHOR (seed); 0.016 kg/ha) | ECHOR (seed) herbicidal activity, visual percentage grading (ECHOR (seed); 0.063 kg/ha) | ECHOR (seed) herbicidal activity, visual percentage grading (ECHOR (seed); 0.250 kg/ha) | ECHOR (seed) herbicidal activity, visual percentage grading (ECHOR (seed); 1.000 kg/ha) | ECHOR (seed) herbicidal activity, visual percentage grading (ECHOR (seed); 4.000 kg/ha) | SCPJU (seed) herbicidal activity, visual percentage grading (SCPJU (seed); 0.016 kg/ha) | SCPJU (seed) herbicidal activity, visual percentage grading (SCPJU (seed); 0.063 kg/ha) | SCPJU (seed) herbicidal activity, visual percentage grading (SCPJU (seed); 0.250 kg/ha) | SCPJU (seed) herbicidal activity, visual percentage grading (SCPJU (seed); 1.000 kg/ha) | SCPJU (seed) herbicidal activity, visual percentage grading (SCPJU (seed); 4.000 kg/ha) | MOOVA (seed) herbicidal activity, visual percentage grading (MOOVA (seed); 0.016 kg/ha) | MOOVA (seed) herbicidal activity, visual percentage grading (MOOVA (seed); 0.063 kg/ha) | MOOVA (seed) herbicidal activity, visual percentage grading (MOOVA (seed); 0.250 kg/ha) | MOOVA (seed) herbicidal activity, visual percentage grading (MOOVA (seed); 1.000 kg/ha) | MOOVA (seed) herbicidal activity, visual percentage grading (MOOVA (seed); 4.000 kg/ha) | CYPSE (tuber) herbicidal activity, visual percentage grading (CYPSE (tuber); 0.016 kg/ha) | CYPSE (tuber) herbicidal activity, visual percentage grading (CYPSE (tuber); 0.063 kg/ha) | CYPSE (tuber) herbicidal activity, visual percentage grading (CYPSE (tuber); 0.250 kg/ha) | CYPSE (tuber) herbicidal activity, visual percentage grading (CYPSE (tuber); 1.000 kg/ha) | CYPSE (tuber) herbicidal activity, visual percentage grading (CYPSE (tuber); 4.000 kg/ha) | other results
CC1(COCc2cccc(F)c2)CC(c2sccc2Br)=NO1 (stereo not drawn) [EXAMPLE 18, 5-(3-fluorobenzyl)oxymethyl-5-methyl-3-(4-bromothiophene-5-yl)-1,2-isoxazoline] | 0% | 60% | 100% | 100% | 100% | 0% | 10% | 100% | 100% | 100% | 0% | 100% | 100% | 100% | 100% | 0% | 40% | 70% | 100% | 100% | ORYSA (3-leaf stage) phytotoxicity, visual percentage grading (ORYSA (3-leaf stage); in vivo): 0%; ORYSA (seed) phytotoxicity, visual percentage grading (ORYSA (seed); in vivo): 100%; SAGPY (tuber) herbicidal activity, visual percentage grading (SAGPY (tuber); 0.016 kg/ha): 0%; SAGPY (tuber) herbicidal activity, visual percentage grading (SAGPY (tuber); 0.063 kg/ha): 0%; SAGPY (tuber) herbicidal activity, visual percentage grading (SAGPY (tuber); 0.250 kg/ha): 0%; SAGPY (tuber) herbicidal activity, visual percentage grading (SAGPY (tuber); 1.000 kg/ha): 0%; SAGPY (tuber) herbicidal activity, visual percentage grading (SAGPY (tuber); 4.000 kg/ha): 20%
Cc1ccsc1C1=NOC(C)(COCc2c(F)cccc2F)C1 (stereo not drawn) [EXAMPLE 8, 5-(2,6-difluorobenzyl)oxymethyl-5-methyl-3-(4-methylthiophene-5-yl)-1,2-isoxazoline] | 50% | 100% | 100% | 100% | 100% | 0% | 10% | 10% | 40% | 100% | 50% | 90% | 90% | 100% | 100% | 0% | 50% | 90% | 100% | 100% | SAGPY (tuber) herbicidal activity, visual percentage grading (SAGPY (tuber); 0.016 kg/ha): 0%; SAGPY (tuber) herbicidal activity, visual percentage grading (SAGPY (tuber); 0.063 kg/ha): 0%; SAGPY (tuber) herbicidal activity, visual percentage grading (SAGPY (tuber); 0.250 kg/ha): 0%; SAGPY (tuber) herbicidal activity, visual percentage grading (SAGPY (tuber); 1.000 kg/ha): 50%; SAGPY (tuber) herbicidal activity, visual percentage grading (SAGPY (tuber); 4.000 kg/ha): 80%; ORYSA 2-leaf stage phytotoxicity, visual percentage grading (ORYSA 2-leaf stage; 0.016 kg/ha): 0%; ORYSA 2-leaf stage phytotoxicity, visual percentage grading (ORYSA 2-leaf stage; 0.063 kg/ha): 0%; ORYSA 2-leaf stage phytotoxicity, visual percentage grading (ORYSA 2-leaf stage; 0.250 kg/ha): 0%; ORYSA 2-leaf stage phytotoxicity, visual percentage grading (ORYSA 2-leaf stage; 1.000 kg/ha): 20%; ORYSA 2-leaf stage phytotoxicity, visual percentage grading (ORYSA 2-leaf stage; 4.000 kg/ha): 65%; ORYSA (seed) phytotoxicity, visual percentage grading (ORYSA seed; 0.016 kg/ha): 0%; ORYSA (seed) phytotoxicity, visual percentage grading (ORYSA seed; 0.063 kg/ha): 20%; ORYSA (seed) phytotoxicity, visual percentage grading (ORYSA seed; 0.250 kg/ha): 55%; ORYSA (seed) phytotoxicity, visual percentage grading (ORYSA seed; 1.000 kg/ha): 80%; ORYSA (seed) phytotoxicity, visual percentage grading (ORYSA seed; 4.000 kg/ha): 95%; ECHOR 2-leaf stage herbicidal activity, visual percentage grading (ECHOR 2-leaf stage; 0.016 kg/ha): 45%; ECHOR 2-leaf stage herbicidal activity, visual percentage grading (ECHOR 2-leaf stage; 0.063 kg/ha): 95%; ECHOR 2-leaf stage herbicidal activity, visual percentage grading (ECHOR 2-leaf stage; 0.250 kg/ha): 100%; ECHOR 2-leaf stage herbicidal activity, visual percentage grading (ECHOR 2-leaf stage; 1.000 kg/ha): 100%; ECHOR 2-leaf stage herbicidal activity, visual percentage grading (ECHOR 2-leaf stage; 4.000 kg/ha): 100%
Cc1ccsc1C1=NOC(C)(COCc2ccccc2F)C1 (stereo not drawn) [EXAMPLE 6, 5-(2-fluorobenzyl)oxymethyl-5-methyl-3-(4-methylthiophene-5-yl)-1,2-isoxazoline] | 20% | 100% | 100% | 100% | 100% | 20% | 80% | 80% | 100% | 100% | 0% | 70% | 80% | 80% | 100% | 100% | 100% | 100% | 100% | 100% | ORYSA (3-leaf stage) phytotoxicity, visual percentage grading (ORYSA (3-leaf stage); [1]): 0%; ORYSA (3-leaf stage) phytotoxicity, visual percentage grading (ORYSA (3-leaf stage); [2]): 20%; ORYSA (3-leaf stage) phytotoxicity, visual percentage grading (ORYSA (3-leaf stage); [3]): 20%; ORYSA (3-leaf stage) phytotoxicity, visual percentage grading (ORYSA (3-leaf stage); [4]): 30%; ORYSA (3-leaf stage) phytotoxicity, visual percentage grading (ORYSA (3-leaf stage); [5]): 30%; ORYSA (seed) phytotoxicity, visual percentage grading (ORYSA (seed); [1]): 0%; ORYSA (seed) phytotoxicity, visual percentage grading (ORYSA (seed); [2]): 40%; ORYSA (seed) phytotoxicity, visual percentage grading (ORYSA (seed); [3]): 100%; ORYSA (seed) phytotoxicity, visual percentage grading (ORYSA (seed); [4]): 100%; ORYSA (seed) phytotoxicity, visual percentage grading (ORYSA (seed); [5]): 100%; SAGPY (tuber) herbicidal activity, visual percentage grading (SAGPY (tuber); 0.016 kg/ha): 0%; SAGPY (tuber) herbicidal activity, visual percentage grading (SAGPY (tuber); 0.063 kg/ha): 0%; SAGPY (tuber) herbicidal activity, visual percentage grading (SAGPY (tuber); 0.250 kg/ha): 0%; SAGPY (tuber) herbicidal activity, visual percentage grading (SAGPY (tuber); 1.000 kg/ha): 30%; SAGPY (tuber) herbicidal activity, visual percentage grading (SAGPY (tuber); 4.000 kg/ha): 30%
